The values below are quoted from earlier work in publication PMC6337497 (International Journal of Molecular Sciences, 2018).

The data set concerns metastatic CRPC. More on the design: method as in PMID 12644816, PMID 11448901. The following applies: Phase II clinical trial; cited from earlier work.

On to `O=C1CCC(N2C(=O)c3ccccc3C2=O)C(=O)N1` (stereo not shown) [thalidomide], for which the “patients with a decline in PSA of ≥40%” value is 30–40%.
